Among the data in patent publication US7977322B2 (Vertex Pharmaceuticals Incorporated, priority 2004, dated 2011) are EC50 and Emax values, retold here.

Molecules are shown by their SMILES.

The target of this assay is T1, ΔF508-CFTR (Homo sapiens, UniProt P13569, DEL508-508).
T1 construct: expressed in transfected cells
As to the kind of experiment: Membrane potential optical (FRET/VIPR) assay, identification of correction compounds. The class given is cell-based. To be noted: Table 3, assay not given; for Emax: read-out: % Activity / % Efficacy (relative efficacy). Put shortly: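 NIH3T3 mouse fibroblasts stably expressing ΔF508-CFTR were exposed to compound for 16 h at 37° C in serum-free medium, then loaded with DiSBAC2(3)/CC2-DMPE. After addition of 10 μM forskolin plus 20 μM genistein in Cl⁻-free gluconate bath (pH 7.4), depolarization from Cl⁻ efflux was read by FRET (VIPR II).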

T1 sequence (P13569 with tags, fused parts or gaps DEL508-508): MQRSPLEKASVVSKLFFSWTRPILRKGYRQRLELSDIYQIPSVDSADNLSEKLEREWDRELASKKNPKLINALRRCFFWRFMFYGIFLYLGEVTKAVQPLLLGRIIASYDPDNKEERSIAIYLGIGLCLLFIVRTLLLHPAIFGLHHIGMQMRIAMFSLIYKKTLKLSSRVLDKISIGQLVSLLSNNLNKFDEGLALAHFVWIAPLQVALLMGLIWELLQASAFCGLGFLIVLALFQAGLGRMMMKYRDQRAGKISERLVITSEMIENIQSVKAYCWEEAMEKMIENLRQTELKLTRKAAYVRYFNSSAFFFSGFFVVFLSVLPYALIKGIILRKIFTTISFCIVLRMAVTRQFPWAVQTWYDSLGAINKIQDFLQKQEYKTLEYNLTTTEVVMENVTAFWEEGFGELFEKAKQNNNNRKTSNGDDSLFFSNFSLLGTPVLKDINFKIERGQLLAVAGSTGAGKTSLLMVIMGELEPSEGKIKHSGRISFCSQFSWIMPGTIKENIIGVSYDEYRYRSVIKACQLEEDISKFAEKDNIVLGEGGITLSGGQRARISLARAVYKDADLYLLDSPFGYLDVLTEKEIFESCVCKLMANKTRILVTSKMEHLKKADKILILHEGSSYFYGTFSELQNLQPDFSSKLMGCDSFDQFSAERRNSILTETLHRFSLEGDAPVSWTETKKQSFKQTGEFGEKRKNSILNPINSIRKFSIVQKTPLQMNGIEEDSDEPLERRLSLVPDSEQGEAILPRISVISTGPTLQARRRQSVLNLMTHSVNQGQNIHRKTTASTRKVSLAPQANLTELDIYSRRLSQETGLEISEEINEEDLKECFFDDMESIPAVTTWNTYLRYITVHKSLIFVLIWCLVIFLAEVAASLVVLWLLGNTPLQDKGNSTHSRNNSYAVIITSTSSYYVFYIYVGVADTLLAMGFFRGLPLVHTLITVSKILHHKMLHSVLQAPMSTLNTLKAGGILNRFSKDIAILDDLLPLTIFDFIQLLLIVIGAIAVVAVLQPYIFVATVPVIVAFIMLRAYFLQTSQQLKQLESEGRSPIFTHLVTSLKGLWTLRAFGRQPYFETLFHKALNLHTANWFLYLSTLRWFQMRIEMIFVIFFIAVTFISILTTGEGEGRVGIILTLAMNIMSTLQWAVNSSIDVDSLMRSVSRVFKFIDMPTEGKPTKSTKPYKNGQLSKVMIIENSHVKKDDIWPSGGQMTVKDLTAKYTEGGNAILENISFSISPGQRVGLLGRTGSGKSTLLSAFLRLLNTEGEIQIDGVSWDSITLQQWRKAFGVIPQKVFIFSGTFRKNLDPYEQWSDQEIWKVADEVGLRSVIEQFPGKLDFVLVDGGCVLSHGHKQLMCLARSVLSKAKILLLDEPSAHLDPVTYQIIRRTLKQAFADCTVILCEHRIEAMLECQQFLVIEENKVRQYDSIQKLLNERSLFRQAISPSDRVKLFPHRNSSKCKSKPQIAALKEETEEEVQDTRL

Broadly, the EC50 is the concentration giving half of the maximal effect. With `CN(C1CCCCC1)C(c1cnc(NC(=O)C2(c3ccc4c(c3)OCO4)CC2)s1)c1ccccc1Cl` (stereo not drawn) [Example 413], the 50% effective concentration (EC50) was below 10 µM and the Emax is above 100%.
Consider `O=C(Nc1ncc(C(NC2CCCC2)c2ccccc2Cl)s1)C1(c2ccc3c(c2)OCO3)CC1` (stereo not drawn) [Example 414], for which the half-maximal effective concentration (EC50) was below 10 µM and the Emax was above 100%.
Turning to `O=C(Nc1ncc(C(NC2CC2)c2ccccc2Cl)s1)C1(c2ccc3c(c2)OCO3)CC1` (stereo not drawn) [Example 415], the EC50 was below 10 µM and the Emax is above 100%.
Taken in the same sequence, the figures for `O=C(Nc1ncc(C(NCCO)c2ccccc2Cl)s1)C1(c2ccc3c(c2)OCO3)CC1` (stereo not drawn) [Example 416] were below 10 µM and above 100%.
Taken in the same sequence, the figures for `O=C(Nc1ncc(C(NC2CCC2)c2ccccc2Cl)s1)C1(c2ccc3c(c2)OCO3)CC1` (stereo not drawn) [Example 417] were below 10 µM and above 100%.
On to `NC(=O)C1CCCN(C(c2cnc(NC(=O)C3(c4ccc5c(c4)OCO5)CC3)s2)c2ccccc2Cl)C1` (stereo not drawn) [Example 418], for which the EC50 was below 10 µM and the Emax is above 100%.
In the same order, the values of `O=C(Nc1ncc(C(c2ccccc2Cl)N2CC[C@@H](O)C2)s1)C1(c2ccccc2Cl)CC1` (stereo partly drawn) [Example 419] are below 10 µM and above 100%.
In the same order, the values of `COc1ccc(C2(C(=O)Nc3ncc(C(c4ccccc4Cl)N4CC[C@@H](O)C4)s3)CC2)cc1` (stereo partly drawn) [Example 420] are below 10 µM and above 100%.
Taken in the same sequence, the figures for `O=C(Nc1ncc(C(c2ccccc2Cl)N2CC[C@@H](O)C2)s1)C1(c2ccc(F)cc2)CC1` (stereo partly drawn) [Example 421] were 10 to 25 µM and above 100%.
Regarding `Cc1ccc(C2(C(=O)Nc3ncc(C(c4ccccc4Cl)N4CC[C@@H](O)C4)s3)CC2)cc1` (stereo partly drawn) [Example 422], the EC50 is below 10 µM and the Emax is above 100%.
Taken in the same sequence, the figures for `O=C(Nc1ncc(C(c2ccccc2Cl)N2CC[C@@H](O)C2)s1)C1(c2ccccc2)CC1` (stereo partly drawn) [Example 423] were below 10 µM and above 100%.
As to `C[C@@H](CO)NC(c1cnc(NC(=O)C2(c3ccc4c(c3)OCO4)CC2)s1)c1ccccc1Cl` (stereo partly drawn) [Example 424], the EC50 is below 10 µM and the Emax is above 100%.
Taken in the same sequence, the figures for `CCOCCCNC(c1cnc(NC(=O)C2(c3ccc4c(c3)OCO4)CC2)s1)c1ccccc1Cl` (stereo not drawn) [Example 425] were below 10 µM and 25 to 100%.
Regarding `CCCN(CCO)C(c1cnc(NC(=O)C2(c3ccc4c(c3)OCO4)CC2)s1)c1ccccc1Cl` (stereo not drawn) [Example 426], the EC50 is below 10 µM and the Emax fell in the range of 25 to 100%.
As for `O=C(Nc1ncc(C(NCCC2=CCCCC2)c2ccccc2Cl)s1)C1(c2ccc3c(c2)OCO3)CC1` (stereo not drawn) [Example 427], the half-maximal effective concentration (EC50) was below 10 µM and the Emax was above 100%.
Take `CC(C)(C)CCNC(c1cnc(NC(=O)C2(c3ccc4c(c3)OCO4)CC2)s1)c1ccccc1Cl` (stereo not drawn) [Example 428]: the EC50 was below 10 µM and the Emax is above 100%.
Taken in the same sequence, the figures for `CC1(C)CC(NC(c2cnc(NC(=O)C3(c4ccc5c(c4)OCO5)CC3)s2)c2ccccc2Cl)CCO1` (stereo not drawn) [Example 429] were below 10 µM and above 100%.
As to `O=C(Nc1ncc(C(NCCc2ccccn2)c2ccccc2Cl)s1)C1(c2ccc3c(c2)OCO3)CC1` (stereo not drawn) [Example 430], the half-maximal effective concentration (EC50) was below 10 µM and the Emax is above 100%.
For `CC(CO)(CO)NC(c1cnc(NC(=O)C2(c3ccc4c(c3)OCO4)CC2)s1)c1ccccc1Cl` (stereo not drawn) [Example 431], the EC50 is below 10 µM and the Emax is above 100%.
Taken in the same sequence, the figures for `CCNC(c1cnc(NC(=O)C2(c3ccc4c(c3)OCO4)CC2)s1)c1ccccc1Cl` (stereo not drawn) [Example 432] were below 10 µM and above 100%.
Taken in the same sequence, the figures for `O=C(Nc1ncc(C(NC(CO)CO)c2ccccc2Cl)s1)C1(c2ccc3c(c2)OCO3)CC1` (stereo not drawn) [Example 433] were below 10 µM and above 100%.
Turning to `O=C(Nc1ncc(C(NC[C@@H]2CCCO2)c2ccccc2Cl)s1)C1(c2ccc3c(c2)OCO3)CC1` (stereo partly drawn) [Example 434], the 50% effective concentration (EC50) is below 10 µM and the Emax is above 100%.
Taken in the same sequence, the figures for `CCCN(CC1CC1)C(c1cnc(NC(=O)C2(c3ccc4c(c3)OCO4)CC2)s1)c1ccccc1Cl` (stereo not drawn) [Example 435] were below 10 µM and above 100%.
In the same order, the values of `CC(=O)NCCNC(c1cnc(NC(=O)C2(c3ccc4c(c3)OCO4)CC2)s1)c1ccccc1Cl` (stereo not drawn) [Example 436] are below 10 µM and above 100%.
Turning to `C[C@@H](CO)NC(c1cnc(NC(=O)C2(c3ccc4c(c3)OCO4)CC2)s1)c1ccccc1Cl` (stereo partly drawn) [Example 437], the EC50 is below 10 µM.
On to `CC(C)C[C@H](CO)NC(c1cnc(NC(=O)C2(c3ccc4c(c3)OCO4)CC2)s1)c1ccccc1Cl` (stereo partly drawn) [Example 438], for which the EC50 was below 10 µM and the Emax was above 100%.
Taken in the same sequence, the figures for `COCCNC(c1cnc(NC(=O)C2(c3ccc4c(c3)OCO4)CC2)s1)c1ccccc1Cl` (stereo not drawn) [Example 439] were below 10 µM and above 100%.
In the same order, the values of `CC(C)[C@H](CO)NC(c1cnc(NC(=O)C2(c3ccc4c(c3)OCO4)CC2)s1)c1ccccc1Cl` (stereo partly drawn) [Example 440] are below 10 µM and above 100%.
Taken in the same sequence, the figures for `O=C(Nc1ncc(C(c2ccccc2Cl)N2CC[C@@H](O)C2)s1)C1(c2cccc(C(F)(F)F)c2)CC1` (stereo partly drawn) [Example 441] were below 10 µM and 25 to 100%.
For the molecule `O=C(Nc1ncc(C(c2ccccc2Cl)N2CC[C@@H](O)C2)s1)C1(c2ccccc2C(F)(F)F)CC1` (stereo partly drawn) [Example 442], the EC50 was below 10 µM and the Emax lay in the range of 25 to 100%.
Taken in the same sequence, the figures for `COc1ccccc1C1(C(=O)Nc2ncc(C(c3ccccc3Cl)N3CC[C@@H](O)C3)s2)CC1` (stereo partly drawn) [Example 443] were below 10 µM and 25 to 100%.
Taken in the same sequence, the figures for `Cc1ccccc1C1(C(=O)Nc2ncc(C(c3ccccc3Cl)N3CC[C@@H](O)C3)s2)CC1` (stereo partly drawn) [Example 444] were below 10 µM and above 100%.
Taken in the same sequence, the figures for `O=C(Nc1ncc(C(c2ccccc2Cl)N2CC[C@@H](O)C2)s1)C1(c2ccc(C(F)(F)F)cc2)CC1` (stereo partly drawn) [Example 445] were below 10 µM and above 100%.
For `O=C(Nc1ncc(C(c2ccccc2Cl)N2CC[C@@H](O)C2)s1)C1(c2cccc(Cl)c2)CC1` (stereo partly drawn) [Example 446], the EC50 was below 10 µM and the Emax is above 100%.
In the same order, the values of `O=C(Nc1ncc(C(c2ccccc2Cl)N2CC[C@@H](O)C2)s1)C1(c2cccc(F)c2)CC1` (stereo partly drawn) [Example 447] are below 10 µM and above 100%.
Taken in the same sequence, the figures for `O=C(Nc1ncc(C(c2ccccc2Cl)N2CC[C@@H](O)C2)s1)C1(c2ccccc2F)CC1` (stereo partly drawn) [Example 448] were 10 to 25 µM and above 100%.
In the same order, the values of `O=C(Nc1ncc(C(c2ccccc2Cl)N2CC[C@@H](O)C2)s1)C1(c2ccc(Cl)cc2)CC1` (stereo partly drawn) [Example 449] are below 10 µM and above 100%.
As for `Cc1cccc(C2(C(=O)Nc3ncc(C(c4ccccc4Cl)N4CC[C@@H](O)C4)s3)CC2)c1` (stereo partly drawn) [Example 450], the concentration for a half-maximal effect (EC50) was below 10 µM and the Emax is above 100%.
In the same order, the values of `COc1ccc(C2(C(=O)Nc3ncc(C(c4ccccc4Cl)N4CC[C@@H](O)C4)s3)CC2)cc1OC` (stereo partly drawn) [Example 451] are below 10 µM and above 100%.
Taken in the same sequence, the figures for `COc1cccc(C2(C(=O)Nc3ncc(C(c4ccccc4Cl)N4CC[C@@H](O)C4)s3)CC2)c1` (stereo partly drawn) [Example 452] were below 10 µM and above 100%.
`O=C(Nc1ncc(C(Cc2ccccc2Cl)N2CCCC2)s1)C1(c2ccc3c(c2)OCO3)CC1` (stereo not drawn) [Example 453]: the EC50 is below 10 µM and the Emax was in the range of 25 to 100%.
In the same order, the values of `O=C(Nc1ncc(C(Cc2ccccc2Cl)N2CCCCC2)s1)C1(c2ccc3c(c2)OCO3)CC1` (stereo not drawn) [Example 454] are below 10 µM and above 100%.
In the same order, the values of `COC[C@H]1CCCN1C(Cc1ccccc1Cl)c1cnc(NC(=O)C2(c3ccc4c(c3)OCO4)CC2)s1` (stereo partly drawn) [Example 455] are below 10 µM and above 100%.
Taken in the same sequence, the figures for `COC[C@@H]1CCCN1C(Cc1ccccc1Cl)c1cnc(NC(=O)C2(c3ccc4c(c3)OCO4)CC2)s1` (stereo partly drawn) [Example 456] were below 10 µM and above 100%.
With `CN(C)C(Cc1ccccc1Cl)c1cnc(NC(=O)C2(c3ccc4c(c3)OCO4)CC2)s1` (stereo not drawn) [Example 457], the concentration for a half-maximal effect (EC50) is below 10 µM and the Emax is above 100%.
In the same order, the values of `NC(=O)C1CCCN1C(Cc1ccccc1Cl)c1cnc(NC(=O)C2(c3ccc4c(c3)OCO4)CC2)s1` (stereo not drawn) [Example 458] are below 10 µM and above 100%.
In the same order, the values of `CCN(CC)C(Cc1ccccc1Cl)c1cnc(NC(=O)C2(c3ccc4c(c3)OCO4)CC2)s1` (stereo not drawn) [Example 459] are below 10 µM and above 100%.
Taken in the same sequence, the figures for `O=C(Nc1ncc(C(Cc2ccccc2Cl)N2CCC(O)CC2)s1)C1(c2ccc3c(c2)OCO3)CC1` (stereo not drawn) [Example 460] were below 10 µM and above 100%.
In the case of `O=C(Nc1ncc(C(Cc2ccccc2Cl)N2CCOCC2)s1)C1(c2ccc3c(c2)OCO3)CC1` (stereo not drawn) [Example 461], the concentration for a half-maximal effect (EC50) was below 10 µM and the Emax was above 100%.
Taken in the same sequence, the figures for `O=C(Nc1ncc(C(Cc2ccccc2Cl)N2CC[C@@H](O)C2)s1)C1(c2ccc3c(c2)OCO3)CC1` (stereo partly drawn) [Example 462] were below 10 µM and above 100%.
In the same order, the values of `CCOc1ccccc1C(c1cnc(NC(=O)C2(c3ccc4c(c3)OCO4)CC2)s1)N1CCCC1` (stereo not drawn) [Example 463] are below 10 µM and 25 to 100%.
Taken in the same sequence, the figures for `O=C(Nc1ncc(C(c2ccccc2C(F)(F)F)N2CC[C@@H](O)C2)s1)C1(c2ccc3c(c2)OCO3)CC1` (stereo partly drawn) [Example 464] were below 10 µM and above 100%.
In the case of `O=C(Nc1ncc(C(c2ccccc2F)N2CCCC2)s1)C1(c2ccc3c(c2)OCO3)CC1` (stereo not drawn) [Example 465], the EC50 was below 10 µM and the Emax was above 100%.
